Assay results: patent US8871681B2, “Herbicidal compositions comprising 4-amino-3-chloro-5-fluoro-6-(4-chloro-2-fluoro-3-methoxyphenyl) pyridine-2-carboxylic acid or a derivative thereof and certain sulfonylureas” (Dow AgroSciences LLC, priority 2012, dated 2014)

Key:
[1] = system: SIDSP (Sida spinosa, prickly sida); test: Post-emergence herbicidal activity of mixtures in forage crops, greenhouse (Example IV); format: in vivo, Sida spinosa L.; settings: Table 58 (forage); foliar-applied; after approximately 21 days; 1.1 gai/ha alone
Experimental: (§1) Seeds or root cuttings of the desired test plant species were planted in Sun Gro MetroMix® 306 planting mixture, which typically has a pH of 6.0 to 6.8 and an organic matter content of about 30 percent, in plastic pots with a surface area of 126.6 square centimeters (cm^2). When required to ensure good germination and healthy plants, a fungicide treatment and/or other chemical or physical treatment was applied. The plants were grown for 14-60 days in a greenhouse with an approximate 14 hour photoperiod which was maintained at approximately 28° C. during the day and 24° C. during the night. Nutrients and water were added on a regular basis and supplemental lighting was provided with overhead metal halide 1000-Watt lamps as necessary. The plants were employed for testing when they reached the BBCH13 to BBCH23 leaf stage.
(§2) Treatments consisted of the benzyl ester of 4-amino-3-chloro-5-fluoro-6-(4-chloro-2-fluoro-3-methoxy-phenyl)pyridine-2-carboxylic acid (Compound A), formulated as a SC, and a second herbicide alone and in combination.
(§3) A measured aliquot of Compound A was placed in 25 milliliter (mL) glass vial and diluted in a volume of 1.25% (v/v) Agri-dex crop oil concentrated to obtain stock solutions. Compound requirements are based upon a 12 mL application volume at a rate of 187 liters per hectare (L/ha). Spray solutions of the second cereal herbicide and experimental compound mixtures were prepared by adding the stock solutions to the appropriate amount of dilution solution to form 12 mL spray solution with active ingredients in two- and three-way combinations. […]
(§4) The treated plants and control plants were placed in a greenhouse as described above and watered by sub-irrigation to prevent wash-off of the test compounds. After approximately 21 days, the condition of the test plants, as compared with that of the control plants, was determined visually and scored on a scale of 0 to 100 percent where 0 corresponds to no injury and 100 corresponds to complete kill. […]

[2] = system: POROL (Portulaca oleracea, portulaca); test: as above; format: in vivo, Portulaca oleracea L.; settings: Table 58 (forage); foliar-applied; after approximately 21 days; 1.1 gai/ha alone
Experimental: as §1, §2, §3, §4

[3] = system: CASOB (Cassia obtusifolia, sicklepod); test: as above; format: in vivo, Cassia obtusifolia L.; settings: Table 58 (forage); foliar-applied; after approximately 21 days; 1.1 gai/ha alone
Experimental: as §1, §2, §3, §4

[4] = system: CIRAR (Cirsium arvense, Canada thistle); test: Post-emergence foliar-applied weed control in cereal crops, greenhouse (Example III); format: in vivo, Cirsium arvense (L.) Scop.; settings: Cirsium arvense, post-emergence, foliar-applied, after 20-22 days, read-out: Weed Control CIRAR Obs
Experimental: as §1, with “Seeds” for “Seeds or root cuttings”, “103.2” for “126.6”, “7-36” for “14-60”, “about 18°” for “approximately 28°”, “17°” for “24°”, “second or third true” for “BBCH13 to BBCH23”
(§5) Treatments consisted of the benzyl ester of 4-amino-3-chloro-5-fluoro-6-(4-chloro-2-fluoro-3-methoxy-phenyl)pyridine-2-carboxylic acid (Compound A), formulated as an SC (suspension concentrate), and a second cereal herbicide alone and in combination.
(§6) Measured aliquot of benzyl ester of 4-amino-3-chloro-5-fluoro-6-(4-chloro-2-fluoro-3-methoxy-phenyl)pyridine-2-carboxylic acid (Compound A) was placed in 25 milliliter (mL) glass vials and diluted in a volume of 1.25% (v/v) Agri-dex crop oil concentrated to obtain stock solutions. Compound requirements are based upon a 12 mL application volume at a rate of 187 liters per hectare (L/ha). Spray solutions of the second cereal herbicide and experimental compound mixtures were prepared by adding the stock solutions to the appropriate amount of dilution solution to form 12 mL spray solution with active ingredients in two- and three-way combinations. Formulated compounds were applied to the plant material with an overhead Mandel track sprayer equipped with an 8002E nozzle calibrated to deliver 187 L/ha over an application area of 0.503 square meters (m^2) at a spray height of 18 inches (46 cm) above average plant canopy. Control plants were sprayed in the same manner with the solvent blank.
(§7) The treated plants and control plants were placed in a greenhouse as described above and watered by sub-irrigation to prevent wash-off of the test compounds. After 20-22 days, the condition of the test plants as compared with that of the control plants was determined visually and scored on a scale of 0 to 100 percent where 0 corresponds to no injury and 100 corresponds to complete kill.
(§8) Colby's equation was used to determine the herbicidal effects expected from the mixtures (Colby, S. R. 1967. Calculation of the synergistic and antagonistic response of herbicide combinations. Weeds 15:20-22.).
(§9) The following equation was used to calculate the expected activity of mixtures containing two active ingredients, A and B: Expected=A+B−(A×B/100)

[5] = system: LAMPU (Lamium purpureum, purple deadnettle); test: as above; format: in vivo, Lamium purpureum (L.); settings: Table 57, after 20-22 days, 8.75 gai/ha Sulfosulfuron alone
Experimental: as §1, with “Seeds” for “Seeds or root cuttings”, “103.2” for “126.6”, “7-36” for “14-60”, “about 18°” for “approximately 28°”, “17°” for “24°”, “second or third true” for “BBCH13 to BBCH23”
as §5, §6, §7, §8, §9

[6] = system: VERPE (Veronica persica, bird's-eye speedwell); test: as above; format: in vivo, Veronica persica Poir.; settings: Table 57, after 20-22 days, 8.75 gai/ha Sulfosulfuron alone
Experimental: as §1, with “Seeds” for “Seeds or root cuttings”, “103.2” for “126.6”, “7-36” for “14-60”, “about 18°” for “approximately 28°”, “17°” for “24°”, “second or third true” for “BBCH13 to BBCH23”
as §5, §6, §7, §8, §9

[7] = system: MATCH (Chamomilla chamomilla, scented mayweed); test: as above; format: in vivo, Chamomilla chamomilla (L.) Rydb.
Experimental: as §1, with “Seeds” for “Seeds or root cuttings”, “103.2” for “126.6”, “7-36” for “14-60”, “about 18°” for “approximately 28°”, “17°” for “24°”, “second or third true” for “BBCH13 to BBCH23”
as §5, §6, §7, §8, §9

[8] = system: VIOTR (Viola tricolor, wild pansy); test: as above; format: in vivo, Viola tricolor (L.)
Experimental: as §1, with “Seeds” for “Seeds or root cuttings”, “103.2” for “126.6”, “7-36” for “14-60”, “about 18°” for “approximately 28°”, “17°” for “24°”, “second or third true” for “BBCH13 to BBCH23”
as §5, §6, §7, §8, §9

[9] = system: IPOHE (Ipomoea hederacea, ivyleaf morningglory); test: Postemergence foliar-applied weed control, direct seeded rice, greenhouse (Example I); format: in vivo, Ipomoea hederacea Jacq.; settings: 21 DAA
Source text: Seeds or nutlets of the desired test plant species were planted in a soil matrix prepared by mixing a loam or sandy loam soil (e.g., 28.6 percent silt, 18.8 percent clay, and 52.6 percent sand, with a pH of about 5.8 and an organic matter content of about 1.8 percent) and calcareous grit in an 80 to 20 ratio. The soil matrix was contained in plastic pots with a volume of 1 quart and a surface area of 83.6 square centimeters (cm^2). When required to ensure good germination and healthy plants, a fungicide treatment and/or other chemical or physical treatment was applied. The plants were grown for 8-22 days in a greenhouse with an approximate 14 h photoperiod which was maintained at about 29° C. during the day and 26° C. during the night. Nutrients (Peters Excel® 15-5-15 5-Ca 2-Mg and iron chelate) were applied in the irrigation solution as needed and water was added on a regular basis. Supplemental lighting was provided with overhead metal halide 1000-Watt lamps as necessary. The plants were employed for testing when they reached the first through fourth true leaf stage.
Treatments consisted of the acid or esters of 4-amino-3-chloro-5-fluoro-6-(4-chloro-2-fluoro-3-methoxy-phenyl)pyridine-2-carboxylic acid (Compound A), each formulated as an SC, and various herbicidal components alone and in combination. Forms of compound A were applied on an acid equivalent basis.
Other herbicidal components were applied on an active ingredient basis and included acetolactate synthase (ALS)-inhibiting herbicides (sulfonylurea chemical class) azimsulfuron formulated as Gulliver®, bensulfuron-methyl formulated as Londax® 60DF, cyclosulfamuron (technical material), ethoxysulfuron formulated as Sunrice® 15 WDG, flazasulfuron formulated as Katana®, flucetosulfuron formulated as Sukedachi® 1KG G, foramsulfuron formulated as Option®, imazosulfuron formulated as Brazzos® WG, iodosulfuron-methyl-sodium formulated as Hussar®, metsulfuron-methyl formulated as Lorate®, nicosulfuron formulated as Accent®, orthosulfamuron formulated as Strada® WG, primisulfuron-methyl (technical material), propyrisulfuron formulated as Zeta One®, rimsulfuron formulated as Matrix® WG, sulfometuron-methyl formulated as Oust®, and trifloxysulfuron-sodium formulated as Monument® 75WG.
Treatment requirements were calculated based upon the rates being tested, the concentration of active ingredient or acid equivalent in the formulation, and a 12 mL application volume at a rate of 187 L/ha.
For treatments comprised of formulated compounds, measured amounts of compounds were placed individually in 25 mL glass vials and diluted in a volume of 1.25% (v/v) Agri-Dex® crop oil concentrated to obtain 12× stock solutions. […] Application solutions were prepared by adding an appropriate amount of each stock solution (e.g., 1 mL) and diluted to the appropriate final concentrations with the addition of 10 mL of an aqueous mixture of 1.25% (v/v) crop oil concentrate so that the final spray solutions contained 1.25+/−0.05% (v/v) Agrcrop oil concentrate.
For treatments comprised of formulated and technical compounds, weighed amounts of the technical materials were placed individually in 25 mL glass vials and dissolved in a volume of 97:3 v/v acetone/DMSO to obtain 12× stock solutions, and measured amounts of the formulated compounds were placed individually in 25 mL glass vials and diluted in a volume of 1.25% (v/v) crop oil concentrate to obtain 12× stock solutions. […] Application solutions were prepared by adding an appropriate amount of each stock solution (e.g., 1 mL) and diluted to the appropriate final concentrations with the addition of an appropriate amount of an aqueous mixture of 1.5% (v/v) crop oil concentrate so that the final spray solutions contained 1.25% (v/v) crop oil concentrate. […]

[10] = Table 54, after 20-22 days, 2.5 gai/ha alone

For COC(=O)c1ccccc1S(=O)(=O)NC(=O)Nc1nc(C)nc(OC)n1 [Metsulfuron ME], the “Weed Control SIDSP Obs” value [1] was 52%, the “Weed Control POROL Obs” value [2] was 80% and the “Weed Control CASOB Obs” value [3] was 8%.
For CCS(=O)(=O)c1nc2ccccn2c1S(=O)(=O)NC(=O)Nc1nc(OC)cc(OC)n1 [Sulfosulfuron], the pest or weed control at 8.75 g/ha ([4]; Table 57, 8.75 gai/ha Sulfosulfuron alone) was 70%, the “Weed Control LAMPU Obs” value [5] was 5% and the “Weed Control VERPE Obs” value [6] was 35%. For the same compound, the “Weed Control MATCH Obs” value ([7]; Table 57, after 20-22 days, 8.75 gai/ha Sulfosulfuron alone) was 95%.
With COc1nc(C)nc(NC(=O)NS(=O)(=O)c2ccccc2Cl)n1 [Chlorsulfuron] the pest or weed control at 2.2 g/ha ([4]; Table 52, 2.2 gai/ha alone) was 78% and the “Weed Control VIOTR Obs” value ([8]; Table 52, after 20-22 days, 2.2 gai/ha alone) was 70%.
With COC(=O)c1ccc(I)cc1S(=O)(=O)[N-]C(=O)Nc1nc(C)nc(OC)n1.[Na+] [Iodosulfuron-methyl sodium, methyl 4-iodo-2-[[[[(4-methoxy-6-methyl-1,3,5-triazin-2-yl)amino]carbonyl]amino]sulfonyl]benzoate, sodium salt, reference compound] the pest or weed control at 2.5 g/ha ([4]; Table 54, 2.5 gai/ha alone) was 60%, the “Weed Control VIOTR Obs” value [8, 10] was 82% and the “Weed Control MATCH Obs” value [7, 10] was 94%. The “Visual Weed Control (%) Obs” value ([9]; 2.5 gai/ha) was 90% and the “Visual Weed Control (%) Obs” value ([9]; 5 gai/ha) was 95%.
